# Test results from patent US20260158014A1, “METHODS OF ADMINISTERING VOXELOTOR” (Global Blood Therapeutics, Inc., priority 2021, published 2026).
# “Also recorded” adds a separate entry of the source.
# Columns and labels:
# [1] = target: OCT2 (Homo sapiens, UniProt O15244); assay: In vitro transporter study; assay type: in vitro ADME
# [2] = test system: patients with SCD aged 4 to 11 years; assay: Open-label Phase 2 trial (part C): Hb response and hemolysis markers; assay type: in vivo, human
# From the text: Patients and treatment: Patients with SCD were screened at 15 study sites in the United States, Lebanon, and the United Kingdom. Key inclusion criteria included patients with SCD (homozygous sickle cell disease [HbSS] or HbSβ^0 genotypes), aged 4 to 11 years, and with hemoglobin (Hb) concentrations ≤10.5 g/dL at baseline. Concomitant hydroxyurea was allowed if the dose was stable for ≥3 months at enrollment, with no anticipated need for dose adjustment during the study. There was no eligibility requirement regarding prior VOCs. Patients who were receiving chronic red blood cell transfusion therapy, had received a transfusion in the past 30 days, or had been hospitalized for a VOC, acute chest syndrome, splenic sequestration crisis, or dactylitis within 14 days before providing informed consent were excluded.
# All patients received dispersible voxelotor tablets. Patients aged 4 to 11 years received once-daily voxelotor weight-based-dosing (Table 1).
# Statistical analyses: All efficacy and safety assessments were summarized with descriptive statistics. Population PK analyses using nonlinear mixed-effects modeling were performed to characterize voxelotor PK in plasma and whole blood.
# Patients 4 to <12 years received tablets for oral suspension based on body weight at baseline. OXBRYTA doses of 600 mg, 900 mg, or 1,500 mg once daily were administered to patients weighing 10 kg to <20 kg, 20 kg to <40 kg, or ≥40 kg, respectively. Patients 12 to <17 years received OXBRYTA 1,500 mg once daily.
# Patients were included if their baseline hemoglobin (Hb) was <10.5 g/dL. Eligible patients on stable doses of hydroxyurea for at least 90 days were allowed to continue hydroxyurea therapy throughout the study.
# Efficacy was based on Hb response rate, which is defined as a Hb increase of >1 g/dL from baseline to Week 24.
# [3] = target: OATP1A2 (Homo sapiens, UniProt P46721); assay: In vitro transporter study; assay type: in vitro ADME
# OATP1A2, sequence (P46721 whole entry, species assumed): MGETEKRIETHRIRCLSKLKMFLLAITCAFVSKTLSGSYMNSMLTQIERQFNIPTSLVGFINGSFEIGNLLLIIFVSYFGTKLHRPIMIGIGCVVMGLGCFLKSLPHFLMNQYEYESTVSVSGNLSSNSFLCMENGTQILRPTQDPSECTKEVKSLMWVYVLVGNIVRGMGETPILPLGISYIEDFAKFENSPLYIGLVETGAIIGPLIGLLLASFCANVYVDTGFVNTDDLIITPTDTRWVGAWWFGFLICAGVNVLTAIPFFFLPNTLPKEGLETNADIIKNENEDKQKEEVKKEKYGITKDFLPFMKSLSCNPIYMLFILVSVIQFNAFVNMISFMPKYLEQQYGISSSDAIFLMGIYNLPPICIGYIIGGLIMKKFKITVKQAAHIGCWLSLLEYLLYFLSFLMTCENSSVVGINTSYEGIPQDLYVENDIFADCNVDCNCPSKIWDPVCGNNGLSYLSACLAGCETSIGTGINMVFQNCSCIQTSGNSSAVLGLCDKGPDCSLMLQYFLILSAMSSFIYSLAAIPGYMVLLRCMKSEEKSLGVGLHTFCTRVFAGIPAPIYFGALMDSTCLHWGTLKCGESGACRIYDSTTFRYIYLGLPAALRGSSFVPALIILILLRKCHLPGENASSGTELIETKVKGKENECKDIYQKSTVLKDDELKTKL
# [4] = test system: pregnant rabbits; assay: Embryo-fetal development study in rabbits; assay type: in vivo, rabbit; settings: oral 25, 75, 150 mg/kg/day, gestation days 7 through 19
# Protocol: (§1) In embryo-fetal development studies, voxelotor was administered orally to pregnant rats at 15, 50, and 250 mg/kg/day (gestation days 7 through 17) and rabbits at 25, 75, and 150 mg/kg/day (gestation days 7 through 19) through organogenesis.
# [5] = target: T1, CYP2D6 (Homo sapiens, UniProt P10635); assay: Effect of voxelotor on CYP450 enzymes in vivo: CYP2D6
# T1 construct: endogenous in cells; host or cells: human subjects (in vivo)
# T1 sequence (P10635 whole entry): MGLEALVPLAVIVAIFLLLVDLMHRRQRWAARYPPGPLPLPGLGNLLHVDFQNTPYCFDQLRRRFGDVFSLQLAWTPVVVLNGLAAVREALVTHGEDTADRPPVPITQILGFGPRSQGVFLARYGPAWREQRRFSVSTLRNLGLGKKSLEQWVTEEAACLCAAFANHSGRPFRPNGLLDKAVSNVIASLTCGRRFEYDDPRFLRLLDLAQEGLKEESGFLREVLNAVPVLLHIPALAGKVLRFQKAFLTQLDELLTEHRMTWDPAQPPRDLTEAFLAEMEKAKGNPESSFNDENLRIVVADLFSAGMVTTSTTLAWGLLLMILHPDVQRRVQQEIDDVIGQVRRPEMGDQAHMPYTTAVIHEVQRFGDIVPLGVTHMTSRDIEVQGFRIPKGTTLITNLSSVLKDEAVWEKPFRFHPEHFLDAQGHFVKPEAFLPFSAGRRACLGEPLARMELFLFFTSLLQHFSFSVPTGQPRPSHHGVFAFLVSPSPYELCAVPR
# [6] = Voxelotor in milk of lactating rats; assay type: in vivo, rat
# [7] = target: OAT3 (Homo sapiens, UniProt Q8TCC7); assay: In vitro transporter study; assay type: in vitro ADME
# OAT3, sequence (Q8TCC7 whole entry, species assumed): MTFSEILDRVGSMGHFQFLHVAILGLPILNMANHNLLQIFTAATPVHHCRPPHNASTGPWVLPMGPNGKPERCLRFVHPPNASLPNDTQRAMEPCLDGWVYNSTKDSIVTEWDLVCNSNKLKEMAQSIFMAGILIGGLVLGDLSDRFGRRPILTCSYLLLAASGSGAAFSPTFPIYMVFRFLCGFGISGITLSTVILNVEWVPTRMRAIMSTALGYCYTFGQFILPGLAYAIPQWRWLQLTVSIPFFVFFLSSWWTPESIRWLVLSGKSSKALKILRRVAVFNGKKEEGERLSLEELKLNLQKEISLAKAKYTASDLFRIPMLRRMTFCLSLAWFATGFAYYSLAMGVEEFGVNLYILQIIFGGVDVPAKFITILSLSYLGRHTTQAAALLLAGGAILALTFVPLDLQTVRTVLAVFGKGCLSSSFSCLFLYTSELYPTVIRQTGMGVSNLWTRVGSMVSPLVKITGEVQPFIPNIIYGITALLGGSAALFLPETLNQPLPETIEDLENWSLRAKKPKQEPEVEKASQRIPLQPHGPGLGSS
# [8] = target: MATE2-K (Homo sapiens, UniProt Q86VL8); assay: In vitro transporter study; assay type: in vitro ADME
# [9] = target: BCRP (Homo sapiens, UniProt Q9UNQ0); assay: In vitro transporter study; assay type: in vitro ADME
# BCRP, sequence (Q9UNQ0 whole entry, species assumed): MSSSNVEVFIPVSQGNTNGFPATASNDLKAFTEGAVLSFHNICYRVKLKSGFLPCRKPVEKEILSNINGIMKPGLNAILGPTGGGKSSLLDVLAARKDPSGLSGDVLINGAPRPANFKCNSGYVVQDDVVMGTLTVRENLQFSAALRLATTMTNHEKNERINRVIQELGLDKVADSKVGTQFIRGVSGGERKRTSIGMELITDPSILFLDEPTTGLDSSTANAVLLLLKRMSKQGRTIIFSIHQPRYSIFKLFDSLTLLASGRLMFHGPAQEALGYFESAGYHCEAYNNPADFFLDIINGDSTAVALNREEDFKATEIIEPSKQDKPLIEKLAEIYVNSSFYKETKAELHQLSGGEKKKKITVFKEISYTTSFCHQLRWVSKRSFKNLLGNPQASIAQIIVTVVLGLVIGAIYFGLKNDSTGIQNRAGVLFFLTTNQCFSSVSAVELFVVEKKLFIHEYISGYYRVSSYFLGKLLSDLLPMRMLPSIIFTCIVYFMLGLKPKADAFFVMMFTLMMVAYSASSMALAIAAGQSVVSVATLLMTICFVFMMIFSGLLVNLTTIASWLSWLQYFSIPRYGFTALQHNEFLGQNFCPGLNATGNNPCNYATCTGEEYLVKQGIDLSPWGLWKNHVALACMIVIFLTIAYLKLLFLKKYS
# [10] = target: OATP1B1 (Homo sapiens, UniProt Q9Y6L6); assay: In vitro transporter study; assay type: in vitro ADME
# OATP1B1, sequence (Q9Y6L6 whole entry, species assumed): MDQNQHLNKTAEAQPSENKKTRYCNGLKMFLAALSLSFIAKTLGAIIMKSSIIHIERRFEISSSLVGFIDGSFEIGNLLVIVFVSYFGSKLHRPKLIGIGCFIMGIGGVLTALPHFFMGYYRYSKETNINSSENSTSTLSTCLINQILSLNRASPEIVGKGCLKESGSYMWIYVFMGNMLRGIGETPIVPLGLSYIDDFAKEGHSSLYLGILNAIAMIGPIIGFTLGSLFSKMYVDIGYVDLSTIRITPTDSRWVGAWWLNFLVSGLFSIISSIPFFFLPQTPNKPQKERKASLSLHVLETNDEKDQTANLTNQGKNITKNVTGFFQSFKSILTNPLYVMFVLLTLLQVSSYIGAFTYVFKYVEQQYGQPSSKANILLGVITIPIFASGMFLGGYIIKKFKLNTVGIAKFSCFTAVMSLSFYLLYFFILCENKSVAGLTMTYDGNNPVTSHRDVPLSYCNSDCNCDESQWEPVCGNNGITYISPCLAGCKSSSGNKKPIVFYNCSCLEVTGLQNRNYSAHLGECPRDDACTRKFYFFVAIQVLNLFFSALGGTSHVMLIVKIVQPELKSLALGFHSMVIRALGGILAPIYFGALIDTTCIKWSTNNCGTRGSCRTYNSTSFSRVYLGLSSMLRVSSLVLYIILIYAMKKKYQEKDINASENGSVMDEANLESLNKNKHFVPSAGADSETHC
# [11] = Physicochemical description (solubility, hygroscopicity); settings: crystalline Form II free base
# [12] = target: MATE1 (Homo sapiens, UniProt Q96FL8); assay: In vitro transporter study; assay type: in vitro ADME
# MATE1, sequence (Q96FL8 whole entry, species assumed): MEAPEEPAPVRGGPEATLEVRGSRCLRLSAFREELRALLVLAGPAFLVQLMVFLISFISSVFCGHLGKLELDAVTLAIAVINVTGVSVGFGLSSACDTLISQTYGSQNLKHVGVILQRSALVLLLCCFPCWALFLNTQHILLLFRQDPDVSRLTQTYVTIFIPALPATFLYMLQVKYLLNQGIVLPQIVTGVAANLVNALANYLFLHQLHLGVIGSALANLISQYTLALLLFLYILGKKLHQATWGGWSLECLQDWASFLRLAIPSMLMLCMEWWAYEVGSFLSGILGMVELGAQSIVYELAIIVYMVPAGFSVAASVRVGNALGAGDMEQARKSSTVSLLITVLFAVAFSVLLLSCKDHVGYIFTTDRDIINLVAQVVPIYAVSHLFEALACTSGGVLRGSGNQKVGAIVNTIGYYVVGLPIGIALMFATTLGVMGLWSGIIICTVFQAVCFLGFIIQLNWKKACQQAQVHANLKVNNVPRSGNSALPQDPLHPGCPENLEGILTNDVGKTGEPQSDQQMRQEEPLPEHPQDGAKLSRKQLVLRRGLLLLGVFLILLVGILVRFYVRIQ
# [13] = Clinical DDI: acid reducing agent omeprazole on voxelotor; settings: in vivo
# [14] = test system: pregnant rats; assay: Embryo-fetal development study in rats; assay type: in vivo, rat; settings: oral 15, 50, 250 mg/kg/day, gestation days 7 through 17
# Protocol: as §1
# [15] = PK in patients with HbSC genotype; assay type: in vivo, human
# [16] = Excretion of radiolabeled voxelotor; assay type: in vivo
# [17] = test system: patients treated; assay: Hypersensitivity reactions in treated patients; settings: human, in vivo
# [18] = test system: patients with SCD aged 4 to 11 years; assay: Open-label Phase 2 trial (part C): safety assessment (TEAEs)
# [19] = Clinical pharmacokinetics after oral administration; assay type: in vivo, human
# [20] = target: OATP1B3 (Homo sapiens, UniProt Q9NPD5); assay: In vitro transporter study; assay type: in vitro ADME
# OATP1B3, sequence (Q9NPD5 whole entry, species assumed): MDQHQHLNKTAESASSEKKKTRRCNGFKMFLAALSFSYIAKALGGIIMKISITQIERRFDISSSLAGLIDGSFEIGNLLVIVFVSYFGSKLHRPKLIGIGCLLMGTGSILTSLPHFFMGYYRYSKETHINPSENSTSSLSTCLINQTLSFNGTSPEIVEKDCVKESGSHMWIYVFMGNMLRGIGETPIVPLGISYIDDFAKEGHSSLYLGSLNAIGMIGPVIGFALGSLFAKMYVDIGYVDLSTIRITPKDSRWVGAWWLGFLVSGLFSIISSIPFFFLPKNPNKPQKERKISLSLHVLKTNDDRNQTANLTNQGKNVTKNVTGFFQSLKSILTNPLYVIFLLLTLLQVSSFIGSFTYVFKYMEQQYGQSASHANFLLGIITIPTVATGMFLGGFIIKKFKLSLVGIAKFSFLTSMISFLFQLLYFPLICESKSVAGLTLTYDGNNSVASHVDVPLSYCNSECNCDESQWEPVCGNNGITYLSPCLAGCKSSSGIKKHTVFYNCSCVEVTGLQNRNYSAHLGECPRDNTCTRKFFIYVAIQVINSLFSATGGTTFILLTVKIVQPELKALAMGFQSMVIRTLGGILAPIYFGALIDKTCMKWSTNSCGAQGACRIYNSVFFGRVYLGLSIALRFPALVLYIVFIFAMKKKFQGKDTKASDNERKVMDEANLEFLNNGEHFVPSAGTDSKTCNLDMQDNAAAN
# [21] = 4 to 11 years, weight-based dosing
# [22] = 4 to 11 years, n=45, listed as OXBRYTA
# OCT2, sequence (O15244 whole entry): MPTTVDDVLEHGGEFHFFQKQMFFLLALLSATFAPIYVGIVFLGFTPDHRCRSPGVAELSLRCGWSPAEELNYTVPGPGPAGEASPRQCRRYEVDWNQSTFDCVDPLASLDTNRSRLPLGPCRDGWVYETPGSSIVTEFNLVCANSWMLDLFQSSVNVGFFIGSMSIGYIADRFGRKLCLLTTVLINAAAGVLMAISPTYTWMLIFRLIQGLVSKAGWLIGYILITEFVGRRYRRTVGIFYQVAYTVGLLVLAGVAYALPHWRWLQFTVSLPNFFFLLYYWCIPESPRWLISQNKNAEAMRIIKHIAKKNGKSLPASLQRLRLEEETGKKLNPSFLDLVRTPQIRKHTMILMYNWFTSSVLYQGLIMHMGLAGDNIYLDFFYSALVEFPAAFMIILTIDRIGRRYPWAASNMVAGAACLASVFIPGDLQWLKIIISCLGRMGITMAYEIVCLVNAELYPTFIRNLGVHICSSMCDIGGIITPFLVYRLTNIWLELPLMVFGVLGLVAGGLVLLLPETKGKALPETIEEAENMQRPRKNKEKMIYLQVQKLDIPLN
smiles,measurement,setting,value
"CC(C)n1nccc1-c1ncccc1COc1cccc(O)c1C=O [voxelotor, 2-hydroxy-6-((2-(1-isopropyl-1H-pyrazol-5-yl)pyridin-3-yl)methoxy)benzaldehyde]",OCT2 inhibition,[1],not an inhibitor
same,mean change in Hb from baseline at week 24,"[2]; 4 to 11 years, once-daily weight-based 600/900/1500 mg dispersible tablets, n=34",1.0 g/dL
same,patients with Hb response (>1.0 g/dL increase from baseline) at week 2,[2]; [21],54.5%
same,patients with an increase in Hb of any magnitude from baseline at week 24,[2]; [21],82%
same,patients with >2.0 g/dL increase in Hb from baseline at week 24,"[2]; 4 to 11 years, weight-based dosing, n=7/34",21%
same,patients with >1.5 g/dL increase in Hb from baseline at week 24,"[2]; 4 to 11 years, weight-based dosing, n=12/34",35%
same,patients with Hb response (increase >1.0 g/dL from baseline) at week 24,"[2]; 4 to 11 years, weight-based dosing, n=34",47.1%
same,Hb response rate (Hb increase >1 g/dL from baseline to Week 24),[2]; patients 4 to <12 years who took at least one dose (16/45),36%
same,mean percent change from baseline in indirect bilirubin,"[2]; week 24, n=28",−38.6%
same,mean percent change from baseline in percent reticulocyte count,"[2]; week 24, n=31",−3.25%
same,mean percent change from baseline in lactate dehydrogenase,"[2]; week 24, n=32",−2.6%
same,substrate of OATP1A2,[3],not a substrate
same,developmental outcome,[4],no adverse developmental effects; also recorded: no evidence of adverse developmental outcomes
same,CYP2D6 inhibition in vivo,[5],not
same,presence in milk,[6]; lactating rats,detected in milk
same,plasma concentrations relative to concentration in milk,[6]; rats,higher
same,OAT3 inhibition,[7],not an inhibitor
same,MATE2-K inhibition,[8],not an inhibitor
same,BCRP inhibition,[9],not an inhibitor
same,substrate of BCRP,[9],not a substrate
same,OATP1B1 inhibition,[10],not an inhibitor
same,substrate of OATP1B1,[10],not a substrate
same,hygroscopicity,[11],non-hygroscopic
same,solubility in common organic solvents such as acetone and toluene,[11],highly soluble
same,solubility in water,[11],insoluble in water
same,MATE1 inhibition,[12],not an inhibitor
same,effect of omeprazole (proton pump inhibitor) on voxelotor exposure,[13],did not alter voxelotor exposure
same,developmental outcome,[14],no adverse developmental effects; also recorded: no evidence of adverse developmental outcomes
same,steady state whole blood AUC higher in HbSC vs HbSS genotype,"[15]; HbSC n=11, HbSS n=220",50%
same,steady state whole blood Cmax higher in HbSC vs HbSS genotype,"[15]; HbSC n=11, HbSS n=220",45%
same,steady state plasma AUC higher in HbSC vs HbSS genotype,"[15]; human, in vivo",23%
same,steady state plasma Cmax higher in HbSC vs HbSS genotype,"[15]; human, in vivo",15%
same,dose and metabolites excreted in urine,[16],35.5%
same,dose and metabolites excreted into feces,[16],approximately 62.6%
same,dose excreted unchanged in feces,[16],33.3%
same,dose excreted unchanged in urine,[16],0.08%
same,"serious hypersensitivity reactions, patients treated",[17],< 1%
same,Any drug-related TEAE,"[18]; 4-11 years, n=45, week 24",22 (48.9) n (%)
same,Drug-related AE: Abdominal pain,"[18]; 4-11 years, n=45, week 24",4 (8.9) n (%)
same,Drug-related AE: Diarrhea,"[18]; 4-11 years, n=45, week 24",5 (11.1) n (%)
same,Drug-related AE: Headache,"[18]; 4-11 years, n=45, week 24",2 (4.4) n (%)
same,Drug-related AE: Hypersplenism,"[18]; 4-11 years, n=45, week 24",2 (4.4) n (%)
same,Drug-related AE: Pyrexia,"[18]; 4-11 years, n=45, week 24",2 (4.4) n (%)
same,Drug-related AE: Rash,"[18]; 4-11 years, n=45, week 24",5 (11.1) n (%)
same,Drug-related AE: Transaminases increased,"[18]; 4-11 years, n=45, week 24",4 (8.9) n (%)
same,Drug-related AE: Vomiting,"[18]; 4-11 years, n=45, week 24",5 (11.1) n (%)
same,tolerability of weight-based dosing,"[18]; 4 to 11 years, median exposure 43.3 weeks",well tolerated
same,deaths,"[18]; 4 to 11 years, n=45",no deaths
same,"drug-related TEAE diarrhea, patients","[18]; 4 to 11 years, n=45",11%
same,"drug-related TEAE rash, patients","[18]; 4 to 11 years, n=45",11%
same,"drug-related TEAE vomiting, patients","[18]; 4 to 11 years, n=45",11%
same,"pyrexia, patients (non-SCD related TEAE / adverse reaction)","[18]; 4 to 11 years, n=45",35.6%
same,"rash, patients (non-SCD related TEAE / adverse reaction)","[18]; 4 to 11 years, n=45",20%
same,"vomiting, patients (non-SCD related TEAE / adverse reaction)","[18]; 4 to 11 years, n=45",33.3%
same,"pyrexia, patients (non-SCD related TEAE / adverse reaction)",[18]; [22],36%
same,"vomiting, patients (non-SCD related TEAE / adverse reaction)",[18]; [22],33%
same,"abdominal pain, patients (adverse reaction)","[18]; 4 to <12 years, n=45",18%
same,"diarrhea, patients (adverse reaction)","[18]; 4 to <12 years, n=45",18%
same,"headache, patients (adverse reaction)","[18]; 4 to <12 years, n=45",18%
same,patients who discontinued voxelotor due to adverse events,"[18]; of 45 patients, 2 drug-related, 2 unrelated",4 patients
same,time to steady-state after repeated administration,[19]; patients with SCD,≤ 8 days
same,dose linearity of PK,"[19]; single or multiple doses, whole blood, plasma, RBCs",linear
same,OATP1B3 inhibition,[20],not an inhibitor
same,substrate of OATP1B3,[20],not a substrate
